# In US6362369B1, “Phthalic acid diamide derivatives fluorine-containing aniline compounds as starting material, agricultural and horticultural insecticides, and a method for application of the insecticides” (Nihon Nohyaku Co., Ltd., priority 1997, dated 2002):
# Experiments:
# Format in all cases: in vivo
# [1] = tested on: rice leafroller (Cnaphalocrocis medinalis); experiment: Insecticidal effect on rice leafroller (Test Example 3); conditions: 500 ppm, rice lamina dip, third-instar larvae of rice leafroller, 4 days after inoculation, 25° C., humidity 70%
# How it was run: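 Insecticidal effect is judged by a predefined criterion from dead/alive counts four days after infesting air-dried lamina with third-instar larvae, kept on moistened filter paper at 25° C, 70% humidity.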
# [2] = tested on: common cutworm (Spodoptera Litura); experiment: Insecticidal effect on common cutworm (Test Example 2); conditions: 500 ppm, cabbage leaf dip, second-instar larvae of common cutworm, 8 days after inoculation, 25° C.
# How it was run: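 Mortality is the read-out: larvae are counted as dead or alive on day 8 and the percentage is graded by an effect criterion. Second-instar larvae are kept with the air-dried treated material in a sealed dish at 25° C, in triplicate groups of ten.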
# [3] = tested on: diamondback moth (Plutella xylostella); experiment: Insecticidal effect on diamondback moth (Test Example 1); conditions: diamondback moth; judged by the criterion of Test Example 1
# How it was run: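 Oviposition by adults on Chinese cabbage seedling; immersion; air-dry; 25° C room. Count of hatched larvae at day 6 post-immersion → mortality → effect graded by criterion. Triplicate, 10 insects/group.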
Compound,"Insecticidal effect (Test Example 3), judged from mortality [1]","Insecticidal effect (Test Example 2), judged from mortality [2]","Insecticidal effect (Test Example 1), judged from mortality [3]"
CCN(CC)C(=O)c1c(I)cccc1C(=O)Nc1ccc(C(F)(F)F)cc1 [compound 1558],A (100),C (89-80),A (100)
CCc1cc(C(F)(F)C(F)(F)F)ccc1NC(=O)c1cccc(I)c1C(=O)N(CC)CC [compound 1559],A (100),A (100),A (100)
CCN(CC)C(=O)c1c(I)cccc1C(=O)Nc1ccc(C(F)(F)C(F)(F)F)cc1Cl [compound 1560],A (100),A (100),A (100)
CCN(CC)C(=O)c1c(I)cccc1C(=O)Nc1ccc(C(F)(F)C(F)(F)F)cc1C [compound 1561],A (100),A (100),A (100)
CC(C)(C)NC(=O)c1c(I)cccc1C(=O)Nc1ccc(C(F)(F)C(F)(F)F)cc1Br [compound 1562],A (100),A (100),A (100)
Cc1cc(NC(=O)c2cccc(I)c2C(=O)NC(C)C)ccc1C(F)(F)C(F)(F)F [compound 1563],A (100),A (100),A (100)
CCC(C)(C)NC(=O)c1c(I)cccc1C(=O)Nc1ccc(C(F)(F)C(F)(F)F)cc1C [compound 1565],A (100),A (100),A (100)
CCC(C)(C)NC(=O)c1c(I)cccc1C(=O)Nc1ccc(OC(F)(F)F)cc1C [compound 1566],A (100),A (100),A (100)
CCC(C)(C)NC(=O)c1c(I)cccc1C(=O)Nc1ccc(OC(F)F)cc1C [compound 1568],A (100),A (100),A (100)
C=CC(C)(C)NC(=O)c1c(Cl)cccc1C(=O)Nc1ccc(C(F)(F)C(F)(F)F)cc1C [compound 1569],A (100),A (100),A (100)
Cc1cc(C(F)(F)C(F)(F)F)ccc1NC(=O)c1cccc(Cl)c1C(=O)NC(C)(C)C#Cc1ccc(Cl)cc1Cl [compound 1571],A (100),A (100),A (100)
COc1ccc(C#CC(C)(C)NC(=O)c2c(Cl)cccc2C(=O)Nc2ccc(C(F)(F)C(F)(F)F)cc2C)cc1 [compound 1572],A (100),A (100),A (100)
CCCN(CC)C(=O)c1c(I)cccc1C(=O)Nc1ccc(C(F)(F)C(F)(F)F)cc1C [compound 1573],A (100),A (100),A (100)
CCCN(CC)C(=O)c1c(I)cccc1C(=O)Nc1ccc(OC(F)(F)F)cc1C [compound 1574],A (100),A (100),A (100)
Cc1cc(C(F)(F)C(F)(F)F)ccc1NC(=O)c1cccc(Cl)c1C(=O)NCc1ccc(OC(F)(F)F)cc1 [compound 1576],A (100),D (79-50),A (100)
CC(C)NC(=O)c1c(I)cccc1C(=O)Nc1ccc(C(F)(F)C(F)(F)F)cc1Br [compound 1580],A (100),A (100),A (100)
CCCN(CC)C(=O)c1c(F)cccc1C(=O)Nc1ccc(C(F)(F)C(F)(F)F)cc1C [compound 1581],A (100),A (100),A (100)
Cc1cc(C(F)(F)C(F)(F)F)ccc1NC(=O)c1cccc(Cl)c1C(=O)NC(C)(C)C#Cc1ccc(C(F)(F)F)cc1 [compound 1585],A (100),A (100),A (100)

Compound,"Insecticidal effect (Test Example 3), judged from mortality [1]","Insecticidal effect (Test Example 2), judged from mortality [2]","Insecticidal effect (Test Example 1), judged from mortality [3]"
Cc1cc(C(F)(F)C(F)(F)F)ccc1NC(=O)c1cccc(Cl)c1C(=O)NC(C)(C)C#Cc1c(Cl)cccc1Cl [compound 1586],A (100),C (89-80),A (100)
Cc1cc(C(F)(F)C(F)(F)F)ccc1NC(=O)c1cccc(Cl)c1C(=O)NC(C)(C)C#Cc1ccccn1 [compound 1587],A (100),A (100),A (100)
Cc1cc(C(F)(F)C(F)(F)F)ccc1NC(=O)c1cccc(Cl)c1C(=O)NC(C)(C)C#Cc1cccnc1 [compound 1590],A (100),A (100),A (100)
C#CC(C)(C)NC(=O)c1c(Cl)cccc1C(=O)Nc1ccc(OC(F)(F)F)cc1C [compound 1602],A (100),A (100),A (100)
Cc1cc(C(F)(F)C(F)(F)F)ccc1NC(=O)c1cccc(Cl)c1C(=O)NC(C)(C)/C=C/c1ccccc1 [compound 1604],A (100),A (100),A (100)
CCN(CC)C(=O)c1c(I)cccc1C(=O)Nc1ccc(-c2ccc(F)cc2)cc1C [compound 1614],A (100),C (89-80),A (100)
CCN(CC)C(=O)c1c(I)cccc1C(=O)Nc1ccc(-c2ccc(Cl)cc2)cc1C [compound 1615],A (100),A (100),A (100)
Cc1cc(Oc2ncccn2)ccc1NC(=O)c1cccc(I)c1C(=O)NC(C)C [compound 1618],A (100),C (89-80),A (100)
CC(C)NC(=O)c1c(I)cccc1C(=O)Nc1cc2c(cc1Cl)OC(F)(F)O2 [compound 1622],A (100),A (100),A (100)
CC(C)NC(=O)c1c(Cl)cccc1C(=O)Nc1cc2c(cc1Cl)OC(F)(F)O2 [compound 1623],A (100),C (89-80),A (100)
CC(C)(C)NC(=O)c1c(I)cccc1C(=O)Nc1cc2c(cc1Cl)OC(F)(F)O2 [compound 1624],A (100),D (79-50),A (100)
CC(C)NC(=O)c1c(I)cccc1C(=O)Nc1cc2c(cc1Cl)OC(F)(F)C(F)(F)O2 [compound 1625],A (100),A (100),A (100)
Cc1cc(OC(F)(F)F)ccc1NC(=O)c1cccc(I)c1C(=O)NC(C)(C)CCl [compound 1627],A (100),A (100),A (100)
Cc1cc(C(F)(F)C(F)(F)F)ccc1NC(=O)c1cccc(Cl)c1C(=O)NC(C)(C)C#Cc1ccsc1 [compound 1628],A (100),A (100),A (100)
C#CC(C)(C)NC(=O)c1c(I)cccc1C(=O)Nc1ccc(C(F)(F)C(F)(F)F)cc1C [compound 1629],A (100),A (100),A (100)
Cc1cc(C(F)(F)C(F)(F)F)ccc1NC(=O)c1cccc(Cl)c1C(=O)NC(C)(C)C#Cc1ccc(OC(F)(F)F)cc1 [compound 1633],A (100),A (100),A (100)
C#CC(C)(C)NC(=O)c1c(I)cccc1C(=O)Nc1ccc(OC(F)(F)F)cc1C [compound 1634],A (100),A (100),A (100)
